From patent US7198946B2, “Screening for agents effective in decreasing abnormal macrophages associated with amyotrophic lateral sclerosis” (Pathologica, LLC, priority 2001, dated 2007)

System: CD14+ circulating monocytes from ALS patients
Assay: Effect of polyamine analogs on CD14+ monocytes in cultured PBMCs, anti-CD14 flow cytometry
Type: cell-based, human
Conditions: 1.0 μM SL-11047, 6 days incubation; 6 ALS patients vs 1 normal subject and 1 MS patient (FIG. 5)
From the text: Peripheral blood mononuclear cells (PBMCs) are isolated from heparin-treated whole blood by layering over Percoll, density 1.087, (Pharmacia, Piscataway, N.J.) and followed by centrifugation at 800×g. The cells that collect at the Percoll/plasma interface are harvested and washed with 0.01 M phosphate-buffered saline (PBS). Isolated cells are then suspended in RPMI 1640 culture medium, with 10% fetal bovine serum, at a concentration of about 1×10^6 cells/ml. Cells are allocated to polyvinyl culture tubes at 1 ml/tube. A polyamine analog such as SL-11047 is added to 3 tubes, to achieve final concentrations of 1.0, 0.1, and 0.01 micromolar. A fourth tube, for control, receives no (zero) drug. […]
On the […] of incubation, cells are removed from the incubator, washed with PBS and resuspended in PBS at 0.1 ml/tube. Detection of monocytes is detected by addition of fluorescein-conjugated anti-CD14 (DAKO Corp., Carpenteria, Calif.), for 20 minutes, at room temperature, protected from light. […]
An experiment as described above was performed with CD14+ circulating monocytes from 6 ALS patients, 1 multiple sclerosis (MS) patient and 1 normal (non-ALS) control subject. In this experiment, the cells from a patient were incubated with or without polyamine analog SL-11047 for 6 days and survival of CD14+ cells was determined. […]

In the case of CCNCCCNC/C=C\CNCCCNCC.Cl.Cl.Cl.Cl [SL-11047, N,N′-bis(3-ethylaminopropyl)-cis-but-2-ene-1,4-diamine tetrahydrochloride], the “susceptibility to killing (percentage of CD14+ cells killed)” value is reported as “substantially more susceptible to killing”.
